Data on 3 compounds can be found in the NIST ThermoML archive (doi:10.1016/j.fluid.2012.09.038).

The conditions of data set [1]: 101.33 kPa, Liquid, Vibrating tube method.
A short description of data set [2]: refractive index (Na D-line) (dimensionless). Particulars: 101.33 kPa, Liquid, Standard Abbe refractometry.

The structures appear in SMILES notation. ± gives the expanded uncertainty stated by the source.

Turning to `CC(=O)OCCC(C)C` [3-methylbutyl ethanoate], in data set [1] (298.2 K), the mass density turned out to be 866.7 ± 0.2 kg/m3. In data set [2] (298.2 K), the refractive index was 1.3975 ± 0.0008.
For `CC(=O)CCC(C)C` [5-methyl-2-hexanone], the mass density in data set [1] (293.2 K) is given as 887.9 ± 0.2 kg/m3. Further, the refractive index in data set [2] (293.2 K) amounted to 1.4049 ± 0.0008.
As for `O` [water], in data set [2] (298.2 K), the refractive index stood at 1.3324 ± 0.0008.
